Data published in the NIST ThermoML archive (doi:10.1016/j.jct.2009.07.006).

Details: Liquid, Vibrating tube method

Cc1ccccn1 [2-methylpyridine]
mass density [kg/m3]
Details	298.15 K	308.15 K	318.15 K	328.15 K
2130 kPa	941.2	932.1	922.8	913.5
4150 kPa	942.5	933.5	924.3	915.1
6180 kPa	943.9	935	925.8	916.7
8210 kPa	945.3	936.4	927.3	918.3
10230 kPa	946.6	937.8	928.8	919.8
11250 kPa	947.2	938.5	929.5	920.5
12260 kPa	947.9	939.1	930.2	921.3
14290 kPa	949.2	940.5	931.6	922.8
16310 kPa	950.5	941.9	933	924.3
18340 kPa	951.7	943.2	934.4	925.7
20370 kPa	953	944.5	935.8	927.2
22390 kPa	954.2	945.8	937.1	928.6
24420 kPa	955.4	947	938.5	930
26450 kPa	956.6	948.3	939.8	931.4
28470 kPa	957.7	949.5	941.1	932.7
29490 kPa	958.3	950.1	941.7	933.4
30500 kPa	958.9	950.8	942.4	934.1
32520 kPa	960.1	952	943.7	935.4
34550 kPa	961.2	953.2	944.9	936.8
36580 kPa	962.4	954.3	946.1	938
38600 kPa	963.5	955.5	947.3	939.3
39620 kPa	964	956.1	947.9	940

Cc1cccnc1 [3-methylpyridine]
mass density [kg/m3]
Details	298.15 K	308.15 K	318.15 K	328.15 K
2130 kPa	953.2	944.3	935.3	926.3
4150 kPa	954.5	945.7	936.7	927.8
6180 kPa	955.8	947.1	938.1	929.2
8210 kPa	957.1	948.4	939.4	930.7
10230 kPa	958.4	949.7	940.9	932.2
11250 kPa	959	950.4	941.6	932.9
12260 kPa	959.6	951	942.3	933.6
14290 kPa	960.8	952.3	943.6	935
16310 kPa	962.1	953.6	944.9	936.4
18340 kPa	963.3	954.8	946.2	937.7
20370 kPa	964.4	956.1	947.5	939.1
22390 kPa	965.6	957.3	948.8	940.4
24420 kPa	966.7	958.5	950.1	941.7
26450 kPa	967.9	959.7	951.3	943.1
28470 kPa	969	960.9	952.6	944.4
29490 kPa	969.6	961.5	953.2	945
30500 kPa	970.1	962	953.8	945.7
32530 kPa	971.2	963.2	955	946.9
34550 kPa	972.3	964.3	956.2	948.2
36580 kPa	973.4	965.4	957.4	949.4
38600 kPa	974.5	966.5	958.5	950.6
39620 kPa	975	967.1	959.1	951.2

Cc1ccncc1 [4-methylpyridine]
mass density [kg/m3]
Details	298.15 K	308.15 K	318.15 K	328.15 K
2130 kPa	951.2	942.3	933.3	924.3
4150 kPa	952.5	943.7	934.7	925.8
6180 kPa	953.8	945	936.1	927.3
8210 kPa	955.1	946.4	937.4	928.7
10230 kPa	956.3	947.7	938.9	930.2
11250 kPa	956.9	948.3	939.5	930.9
12260 kPa	957.5	949	940.2	931.6
14290 kPa	958.8	950.3	941.6	933
16310 kPa	960	951.5	942.9	934.4
18340 kPa	961.2	952.8	944.2	935.7
20370 kPa	962.3	954	945.5	937.1
22390 kPa	963.5	955.2	946.7	938.4
24420 kPa	964.6	956.4	948	939.7
26450 kPa	965.8	957.6	949.2	941.1
28470 kPa	966.9	958.8	950.5	942.3
29490 kPa	967.4	959.3	951.1	943
30500 kPa	968	959.9	951.7	943.6
32530 kPa	969.1	961.1	952.9	944.8
34550 kPa	970.2	962.2	954	946.1
36580 kPa	971.3	963.3	955.2	947.3
38600 kPa	972.3	964.4	956.4	948.5
39620 kPa	972.8	965	957	949.1

c1ccncc1 [pyridine]
mass density [kg/m3]
Details	298.15 K	308.15 K	318.15 K	328.15 K
2130 kPa	979	969.2	959.3	949.2
4150 kPa	980.4	970.6	960.8	950.7
6180 kPa	981.8	972.1	962.3	952.3
8210 kPa	983.2	973.5	963.7	953.9
10230 kPa	984.5	974.9	965.2	955.4
11250 kPa	985.1	975.6	966	956.2
12260 kPa	985.8	976.3	966.7	956.9
14290 kPa	987.1	977.6	968.1	958.4
16310 kPa	988.3	978.9	969.5	959.9
18340 kPa	989.6	980.3	970.9	961.3
20370 kPa	990.8	981.6	972.2	962.8
22390 kPa	992.1	982.8	973.6	964.2
24420 kPa	993.3	984.1	974.9	965.6
26450 kPa	994.5	985.4	976.2	967
28470 kPa	995.7	986.7	977.6	968.3
29490 kPa	996.3	987.2	978.2	969
30500 kPa	996.9	987.8	978.8	969.7
32530 kPa	998	989	980.1	971
34550 kPa	999.1	990.3	981.4	972.3
36580 kPa	1000.3	991.5	982.6	973.6
38600 kPa	1001.4	992.6	983.8	975
39620 kPa	1002	993.2	984.4	975.6
